pIC50: −log10 of the molar value.

Data on five compounds can be found in patent US10064848B2, “Pyridic ketone derivatives, method of preparing same, and pharmaceutical application thereof” (Shanghai Hengrui Pharmaceutical Co., Ltd., priority 2013, dated 2018).

In the assay the test system is HCT116 cell. The assay can be described thus: Proliferation inhibition on human colon cancer cell HCT116 (CCK8). Format: cell-based. The note with it: HCT-116, HCT116, 72 hours. The text has this:
The following in vitro cell assay was used to determine the activity of the compounds of the present invention for inhibiting the proliferation of human colon cancer cell, and the activity is expressed as IC50.
Cell line which was used in the experiment: HCT116 (Cell Bank of the Chinese Academy of Sciences, Catalog No. TCHu99).
General programs of this kind of assay were as follows: First, the cell line to be tested was inoculated in a 384-well culture plate with a suitable cell concentration of 1000 cells/well, and was cultured in an incubator under the conditions of 37° C. and 5% CO2, then grown overnight. The medium was replaced by new medium added with a series of concentrations (1000 nM, 250 nM, 62.50 nM, 15.63 nM, 3.91 nM, 0.98 nM, 0.24 nM, 0.06 nM, 0.015 nM, 0.004 nM) of the test compound solutions. The plates were placed back in the incubator, and continuously cultured for 72 hours. After 72 hours, CCK8 (Cell Counting Kit-8, Catalog No.: CK04, purchased from colleagues chemical company) method was used to determine the proliferation inhibition activity of the test compounds. IC50 values were calculated from the inhibition data of the test compounds at a series of different concentrations.
The above assay was used to determine the biochemical activity of the compounds of the present invention.
For orientation: pIC50 means −log10 of the IC50, conventionally taken in molar units. Low readings indicate a large IC50, high ones a small IC50. In turn, `CCS(=O)(=O)Nc1cccc(Oc2cc(=O)n(C)c(Nc3ccc(I)cc3F)c2C(N)=O)c1C` [Example 3, 4-(3-(ethylsulfonamido)-2-methylphenoxy)-2-((2-fluoro-4-iodophenyl)amino)-1-methyl-6-oxo-1,6-dihydropyridine-3-carboxamide] gave a pIC50 of 10.22.
Next, `Cc1c(F)cccc1Oc1cc(=O)n(C)c(Nc2ccc(I)cc2F)c1C(N)=O` [Example 1, 4-(3-fluoro-2-methylphenoxy)-2-((2-fluoro-4-iodophenyl)amino)-1-methyl-6-oxo-1,6-dihydropyridine-3-carboxamide]: 8.07; `Cc1cc(F)ccc1Oc1cc(=O)n(C)c(Nc2ccc(I)cc2F)c1C(N)=O` [Example 22, 4-(4-fluoro-2-methylphenoxy)-2-((2-fluoro-4-iodophenyl)amino)-1-methyl-6-oxo-1,6-dihydropyridine-3-carboxamide]: 7.99.
Compound `Cc1ncccc1Oc1cc(=O)n(C)c(Nc2ccc(I)cc2F)c1C(N)=O` [Example 29, 2-((2-fluoro-4-iodophenyl)amino)-1-methyl-4-((2-methylpyridin-3-yl)oxy)-6-oxo-1,6-dihydropyridine-3-carboxamide] gave a pIC50 of 8.05.
Next, `Cc1ccc(Oc2cc(=O)n(C)c(Nc3ccc(I)cc3F)c2C(N)=O)cn1` [Example 31, 2-((2-fluoro-4-iodophenyl)amino)-1-methyl-4-((6-methylpyridin-3-yl)oxy)-6-oxo-1,6-dihydropyridine-3-carboxamide]: 7.44.
